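Test compounds were applied to cells in 96-well plates for 48 hours at 5 doses. GI50 marks 50% less growth. TGI: concentration producing complete growth inhibition.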
Assays:
Assay in all cases: NCI-60 cell line screen, 48 h
HCT-15 colon = system: HCT-15 colon
SF-295 CNS = system: SF-295 CNS
OVCAR-8 ovarian = system: OVCAR-8 ovarian
COLO 205 colon = system: COLO 205 colon
SF-268 CNS = system: SF-268 CNS
SR leukemia = system: SR leukemia
K-562 leukemia = system: K-562 leukemia
SN12C renal = system: SN12C renal
HCT-116 colon = system: HCT-116 colon
BT-549 breast = system: BT-549 breast
SF-539 CNS = system: SF-539 CNS
NCI/ADR-RES ovarian = system: NCI/ADR-RES ovarian
UACC-62 melanoma = system: UACC-62 melanoma
IGROV1 ovarian = system: IGROV1 ovarian
HOP-62 NSCLC = system: HOP-62 NSCLC
SNB-19 CNS = system: SNB-19 CNS
HCC-2998 colon = system: HCC-2998 colon
HT29 colon = system: HT29 colon
HOP-92 NSCLC = system: HOP-92 NSCLC
NCI-H23 lung = system: NCI-H23 lung
NCI-H522 lung = system: NCI-H522 lung
T-47D breast = system: T-47D breast
786-0 renal = system: 786-0 renal
A549 NSCLC = system: A549 NSCLC
SK-MEL-28 melanoma = system: SK-MEL-28 melanoma
HL-60(TB) leukemia = system: HL-60(TB) leukemia
DU-145 prostate = system: DU-145 prostate
OVCAR-5 ovarian = system: OVCAR-5 ovarian
CCRF-CEM leukemia = system: CCRF-CEM leukemia
UACC-257 melanoma = system: UACC-257 melanoma
SK-MEL-2 melanoma = system: SK-MEL-2 melanoma
OVCAR-3 ovarian = system: OVCAR-3 ovarian
CAKI-1 renal = system: CAKI-1 renal
UO-31 renal = system: UO-31 renal
MDA-MB-435 = system: MDA-MB-435
SK-MEL-5 melanoma = system: SK-MEL-5 melanoma
ACHN renal = system: ACHN renal
SK-OV-3 ovarian = system: SK-OV-3 ovarian
EKVX NSCLC = system: EKVX NSCLC
M14 melanoma = system: M14 melanoma
A498 renal = system: A498 renal
OVCAR-4 ovarian = system: OVCAR-4 ovarian
TK-10 renal = system: TK-10 renal
U251 CNS = system: U251 CNS
NCI-H226 lung = system: NCI-H226 lung
MCF7 breast = system: MCF7 breast
PC-3 prostate = system: PC-3 prostate
SNB-75 CNS = system: SNB-75 CNS
SW-620 colon = system: SW-620 colon
RXF 393 renal = system: RXF 393 renal
HS 578T breast = system: HS 578T breast
RPMI-8226 leukemia = system: RPMI-8226 leukemia
NCI-H460 lung = system: NCI-H460 lung
MDA-MB-231 breast = system: MDA-MB-231 breast
KM12 colon = system: KM12 colon
MOLT-4 leukemia = system: MOLT-4 leukemia
LOX IMVI melanoma = system: LOX IMVI melanoma
MALME-3M melanoma = system: MALME-3M melanoma

Question: What does the source list for `CN(C)c1nc(N)nc(CS)n1`?
Answer: TGI (HCT-15 colon): > 100 µM; TGI (SF-295 CNS): > 100 µM; TGI (OVCAR-8 ovarian): > 100 µM; TGI (COLO 205 colon): > 100 µM; TGI (SF-268 CNS): > 100 µM; TGI (SR leukemia): > 100 µM; TGI (K-562 leukemia): > 100 µM; TGI (SN12C renal): > 100 µM; TGI (HCT-116 colon): > 100 µM; TGI (BT-549 breast): > 100 µM; TGI (SF-539 CNS): > 100 µM; TGI (NCI/ADR-RES ovarian): > 100 µM; TGI (UACC-62 melanoma): > 100 µM; TGI (IGROV1 ovarian): > 100 µM; TGI (HOP-62 NSCLC): > 100 µM; TGI (SNB-19 CNS): > 100 µM; TGI (HCC-2998 colon): > 100 µM; TGI (HT29 colon): > 100 µM; TGI (HOP-92 NSCLC): > 100 µM; TGI (NCI-H23 lung): > 100 µM; TGI (NCI-H522 lung): > 100 µM; TGI (T-47D breast): > 100 µM; TGI (786-0 renal): > 100 µM; TGI (A549 NSCLC): > 100 µM; TGI (SK-MEL-28 melanoma): > 100 µM; TGI (HL-60(TB) leukemia): 60.6 µM; TGI (DU-145 prostate): > 100 µM; TGI (OVCAR-5 ovarian): > 100 µM; TGI (CCRF-CEM leukemia): 98.9 µM; TGI (UACC-257 melanoma): > 100 µM; TGI (SK-MEL-2 melanoma): > 100 µM; TGI (OVCAR-3 ovarian): > 100 µM; TGI (CAKI-1 renal): > 100 µM; TGI (UO-31 renal): > 100 µM; TGI (MDA-MB-435): > 100 µM; TGI (SK-MEL-5 melanoma): > 100 µM; TGI (ACHN renal): > 100 µM; TGI (SK-OV-3 ovarian): > 100 µM; TGI (EKVX NSCLC): > 100 µM; TGI (M14 melanoma): > 100 µM; TGI (A498 renal): > 100 µM; TGI (OVCAR-4 ovarian): > 100 µM; TGI (TK-10 renal): > 100 µM; TGI (U251 CNS): > 100 µM; TGI (NCI-H226 lung): > 100 µM; TGI (MCF7 breast): > 100 µM; TGI (PC-3 prostate): > 100 µM; TGI (SNB-75 CNS): > 100 µM; TGI (SW-620 colon): > 100 µM; TGI (RXF 393 renal): > 100 µM; TGI (HS 578T breast): > 100 µM; TGI (RPMI-8226 leukemia): > 100 µM; TGI (NCI-H460 lung): > 100 µM; TGI (MDA-MB-231 breast): > 100 µM; TGI (KM12 colon): > 100 µM; TGI (MOLT-4 leukemia): > 100 µM; TGI (LOX IMVI melanoma): > 100 µM

Question: Which results are given for `Cc1c(Cl)cccc1C(=O)Nc1nc2c(s1)CN(C(=O)c1ccc(C(F)(F)F)cc1)CC2`?
Answer: GI50 (HCT-15 colon): 0.0295 µM; TGI (HCT-15 colon): 21.2 µM; GI50 (SF-295 CNS): 0.0224 µM; TGI (SF-295 CNS): > 50 µM; GI50 (OVCAR-8 ovarian): 0.241 µM; TGI (OVCAR-8 ovarian): > 35.3 µM; GI50 (COLO 205 colon): 0.164 µM; TGI (COLO 205 colon): 0.762 µM; GI50 (SF-268 CNS): 0.565 µM; TGI (SF-268 CNS): > 50 µM; GI50 (SR leukemia): 0.0294 µM; TGI (SR leukemia): > 50 µM; GI50 (K-562 leukemia): 0.0261 µM; TGI (K-562 leukemia): > 50 µM; GI50 (SN12C renal): 0.284 µM; TGI (SN12C renal): > 50 µM; GI50 (HCT-116 colon): 0.101 µM; TGI (HCT-116 colon): > 18.4 µM; GI50 (BT-549 breast): 0.331 µM; TGI (BT-549 breast): 22.9 µM; GI50 (SF-539 CNS): 0.0923 µM; TGI (SF-539 CNS): 0.387 µM; GI50 (NCI/ADR-RES ovarian): 0.0418 µM; TGI (NCI/ADR-RES ovarian): 2.31 µM; GI50 (UACC-62 melanoma): 0.13 µM; TGI (UACC-62 melanoma): > 50 µM; GI50 (IGROV1 ovarian): 0.177 µM; TGI (IGROV1 ovarian): > 50 µM; GI50 (HOP-62 NSCLC): 0.173 µM; TGI (HOP-62 NSCLC): > 50 µM; GI50 (SNB-19 CNS): 0.171 µM; TGI (SNB-19 CNS): > 50 µM; GI50 (HCC-2998 colon): 0.2 µM; TGI (HCC-2998 colon): > 50 µM; GI50 (HT29 colon): 0.0753 µM; TGI (HT29 colon): 9.2 µM; GI50 (HOP-92 NSCLC): 0.877 µM; TGI (HOP-92 NSCLC): 36.4 µM; GI50 (NCI-H23 lung): 0.186 µM; TGI (NCI-H23 lung): > 50 µM; GI50 (NCI-H522 lung): 0.0252 µM; TGI (NCI-H522 lung): 2.33 µM; GI50 (T-47D breast): 0.199 µM; TGI (T-47D breast): 28.8 µM; GI50 (786-0 renal): 0.184 µM; TGI (786-0 renal): > 33.3 µM; GI50 (A549 NSCLC): 0.124 µM; TGI (A549 NSCLC): > 50 µM; GI50 (SK-MEL-28 melanoma): 4.11 µM; TGI (SK-MEL-28 melanoma): > 50 µM; GI50 (HL-60(TB) leukemia): 0.108 µM; TGI (HL-60(TB) leukemia): 1.25 µM; GI50 (DU-145 prostate): 0.194 µM; TGI (DU-145 prostate): > 50 µM; GI50 (OVCAR-5 ovarian): 0.311 µM; TGI (OVCAR-5 ovarian): > 50 µM; GI50 (CCRF-CEM leukemia): 0.135 µM; TGI (CCRF-CEM leukemia): > 50 µM; GI50 (UACC-257 melanoma): 2.36 µM; TGI (UACC-257 melanoma): 23.9 µM; GI50 (SK-MEL-2 melanoma): 0.202 µM; TGI (SK-MEL-2 melanoma): > 50 µM; GI50 (OVCAR-3 ovarian): 0.0583 µM; TGI (OVCAR-3 ovarian): 0.347 µM; GI50 (CAKI-1 renal): 0.0711 µM; TGI (CAKI-1 renal): > 50 µM; GI50 (UO-31 renal): 0.507 µM; TGI (UO-31 renal): > 50 µM; GI50 (MDA-MB-435): 0.0154 µM; TGI (MDA-MB-435): 0.0521 µM; GI50 (SK-MEL-5 melanoma): 0.175 µM; TGI (SK-MEL-5 melanoma): 6.01 µM; GI50 (ACHN renal): 0.267 µM; TGI (ACHN renal): > 40.9 µM; GI50 (SK-OV-3 ovarian): 0.227 µM; TGI (SK-OV-3 ovarian): > 50 µM; GI50 (EKVX NSCLC): 0.285 µM; TGI (EKVX NSCLC): > 50 µM; GI50 (M14 melanoma): 0.0483 µM; TGI (M14 melanoma): 38.4 µM; GI50 (A498 renal): 0.064 µM; TGI (A498 renal): 20.9 µM; GI50 (OVCAR-4 ovarian): 0.663 µM; TGI (OVCAR-4 ovarian): > 50 µM; GI50 (TK-10 renal): 0.934 µM; TGI (TK-10 renal): > 50 µM; GI50 (U251 CNS): 0.145 µM; TGI (U251 CNS): > 35.6 µM; GI50 (NCI-H226 lung): 0.157 µM; GI50 (MCF7 breast): 0.0281 µM; TGI (MCF7 breast): > 37.7 µM; GI50 (PC-3 prostate): 0.117 µM; TGI (PC-3 prostate): > 50 µM; GI50 (SNB-75 CNS): 0.0814 µM; TGI (SNB-75 CNS): > 50 µM; GI50 (SW-620 colon): 0.0656 µM; TGI (SW-620 colon): > 50 µM; GI50 (HS 578T breast): 0.0699 µM; TGI (HS 578T breast): > 50 µM; GI50 (RPMI-8226 leukemia): 0.198 µM; TGI (RPMI-8226 leukemia): > 34.9 µM; GI50 (NCI-H460 lung): 0.158 µM; TGI (NCI-H460 lung): > 20.4 µM; GI50 (MDA-MB-231 breast): 0.344 µM; TGI (MDA-MB-231 breast): > 50 µM; GI50 (KM12 colon): 0.113 µM; TGI (KM12 colon): > 50 µM; GI50 (MOLT-4 leukemia): 0.193 µM; TGI (MOLT-4 leukemia): > 50 µM; GI50 (LOX IMVI melanoma): 0.163 µM; TGI (LOX IMVI melanoma): > 23.1 µM; GI50 (MALME-3M melanoma): 0.515 µM; TGI (MALME-3M melanoma): 17.8 µM

— PubChem BioAssay (NCI)
